Results on one compound are retold here after publication PMC6173502 (2018).

Structures are written as SMILES.

Common to all, as to assay: ITC
(ITC needs no label: the signal is the heat of the interaction.)

In test [1] the test system is BCL2 3-6-2 (DNA, G4) CGGGCACGGGAAAAAAGGGACGGGAAC
The conditions noted are these: K+ 150 mM (KCl); 20 mM Tris, 1 mM EDTA, 30% DMSO, pH 7.2, 25 °C; mode 1 of 3.

The subject of test [2] is BCL2 3-5-3 (DNA, G4) CGGGCACGGGAAAAAGGGAACGGGAAC
The conditions noted are these: K+ 150 mM (KCl); 20 mM Tris, 1 mM EDTA, 30% DMSO, pH 7.2, 25 °C; mode 1 of 3.

The subject of test [3] is KRAS 6-4-4 (DNA, G4) GGGCAATATGGGAAAAGGGAAAAGGGAAAA
The conditions noted are these: K+ 150 mM (KCl); 20 mM Tris, 1 mM EDTA, 30% DMSO, pH 7.2, 25 °C; mode 1 of 3.

Test [4] concerns KRAS 6-4-6 (DNA, G4) GGGCAATATGGGAAAAGGGAAAAAAGGGAA
Particulars: K+ 150 mM (KCl); 20 mM Tris, 1 mM EDTA, 30% DMSO, pH 7.2, 25 °C; mode 1 of 3.

Test [5] concerns hTel22 (DNA, G4) AGGGTTAGGGTTAGGGTTAGGG
The conditions noted are these: 20 mM Tris, 1 mM EDTA, 30% DMSO, pH 7.2, 25 °C, mode 1 of 3.

Take `N=C(N)c1ccc(N=NNc2ccc(C(=N)N)cc2)cc1`: the Ka is 41.5 × 10^7 in test [1]; 17.5 × 10^7 in test [2]; 25.5 × 10^7 in test [3]; 3.85 × 10^7 in test [4]; 13.7 × 10^7 in test [5] (K+ 150 mM (KCl)); 18.2 × 10^7 in test [5] (Na+ 150 mM (NaCl)).
